Test system: primary MM cells
Assay type: cell-based
Conditions: patient 210's primary MM cells, 0.05 μM, interval of 120 hours
Experimental: Each well was imaged every 30 minutes for a total duration of up to 6 days.

`CC(C)C[C@H](NC(=O)[C@H](CCc1ccccc1)NC(=O)CN1CCOCC1)C(=O)N[C@@H](Cc1ccccc1)C(=O)N[C@@H](CC(C)C)C(=O)[C@@]1(C)CO1` [carfilzomib] was tested, and the “delay between start of treatment and initiation of cell death” value was roughly 30 h.

— patent publication US20220412955A1, “A MODEL OF CLINICAL SYNERGY IN CANCER” (priority 2019, published 2022)
